Measured values as given in patent US20120252689A1, “GENE EXPRESSION SIGNATURE FOR WNT/B-CATENIN SIGNALING PATHWAY AND USE THEREOF” (priority 2011, published 2012).

Columns and labels:
active β-catenin [1] = test: Western blot of active β-catenin after LiCl treatment of 293H and CCD1079SK cells; assay type: cell-based, human; details: 20 μM LiCl, 24 h in serum-free medium, FIG. 3B
Method: For positive regulation with LiCl treatment, 293H and CCD1079SKcells were plated in 6-well plate in a density of 2×10^5 cells/well/2 ml and cells were switched to serum-free medium 24 hours after plating. After 12 hours incubation in serum-free medium, cells were treated with or without 20 μM LiCl for 24 h in serum-free medium. At the end of treatment, cells were lysed in 200 μl of G6 lysis buffer and RNA was isolated with RT2 qPCR-Grade RNA Isolation Kit from SABiosciences according to manufacturer's protocol described in experimental protocol section. The protein extraction and western blot was carried out according to western blot protocol with mouse anti-active β-catenin antibody (1:1000). […] The RNA was isolated with RT2 qPCR-Grade RNA Isolation Kit from SABiosciences according to manufacturer's protocol described in experimental protocol section.
(§1) At the end of experimental treatment, cells were lysed in Modified RIPA buffer (150 mM NaCl, 50 mM TrisHCl, 1% IGEPAL, 0.5% sodium deoxycholate, 1 mM EDTA, 1% Triton X-100 and 0.1% SDS with protease and phosphatase inhibitor) (all chemicals from Sigma). […] After 15 minutes centrifuge at 15000 rpm at 4 degrees C., supernatant was transferred to a new 1.5 ml tube and protein concentration was measured with BCA protein assay according to manufacturer's standard protocol (Pierce). […]

active β-catenin [2] = test: Western blot of active β-catenin after Wnt3a treatment of ten different cell lines; assay type: cell-based; details: 400 ng/ml Wnt3a, 12 h in serum-free medium, FIG. 3B
Method: To obtain ten positively regulated samples with Wnt3a treatment, ten different cell lines were plated in 6-well plates in a density of 2×10^5 cells/well/2 ml. After 24 h of plating, cells were switched to serum-free medium by removing normal culture medium, washing cells in PBS two times and replacing with 1 ml serum-free medium each well. After 12 hours in serum-free medium, cells were replaced with serum-free medium with or without 400 ng/ml Wnt3a in duplicate wells for an additional incubation of 12 h. At the end of 12 hours incubation, cells were either lysed in 50 μl modified RIPA buffer for protein lysate extraction or in 200 μl G6 lysis buffer for RNA isolation. The protein extraction and western blot was carried out according to western blot protocol with mouse anti-active β-catenin antibody (1:1000). […]
as §1

[3] = test system: Wnt/β-catenin target genes such as β-catenin (CTNNB1), MYC, CCND1 and AXIN2; test: Real-time RT-PCR of Wnt/β-catenin target genes after Wnt3a treatment of 293H cells; assay type: cell-based, human; details: 400 ng/ml Wnt3a, 12 hours, compared to untreated samples, FIG. 2B
Method: (§2) The protocol that was used to identify the subject gene signature is depicted schematically in FIG. 1. As depicted therein, human embryonic kidney 293H cells were plated in 6-well plate in a density of 10′ cells per well in 2 ml growth medium. Plated cells were incubated in a cell culture incubator at 37 degrees C. with 5% CO2 supplied. Twenty four hours after plating, cells were transfected with siRNA specifically targeting β-catenin or non targeting siRNA as control. For each well, 6 μl of SureFECT transfection reagent (SABiosciences, a QIAGEN company) was diluted into 200 μl of OptiMEM medium (Invitrogen). The diluted transfection reagent was mixed with 20 nM −β catenin targeting siRNA duplex D ([…] (SEQ ID NO: 65)) (SABiosciences, a QIAGEN Company) or non-targeting siRNA ([…] (SEQ ID NO: 66)) (SABiosciences, a QIAGEN owned company) as control. After incubation at room temperature for 20 min, the transfection mixture was added into 293H cells in 6-well plate with 2 ml growth medium. […]
For RNA extraction, cells were lysed in 200 μl of G6 buffer (SABiosciences, a QIAGEN company) for each well. […] The concentration of RNA was measured with Nanodrop spectrophotometer (Thermo SCIENTIFIC) and the RNA was further processed for real-time RT PCR or microarray gene expression profiling analysis. […]

active β-catenin [4] = test: Western blot of active β-catenin after Wnt3a treatment of 293H cells; assay type: cell-based, human; details: 400 ng/ml Wnt3a, 12 hour treatment in serum-free medium, compared to untreated samples, FIG. 2A
Method: as §2, with “control.” for “control. After incubation at room temperature for 20 min, the transfection mixture was added into 293H cells in 6-well plate with 2 ml growth medium.”
as §1

| Compound | active β-catenin protein levels (active β-catenin [1]) | active β-catenin protein levels (active β-catenin [2]) | mRNA expression of Wnt/β-catenin target genes (CTNNB1, MYC, CCND1, AXIN2) [3] | protein levels of active β-catenin (active β-catenin [4]) |
| --- | --- | --- | --- | --- |
| [Cl-].[Li+] [LiCl] | increased active β-catenin protein levels | – | – | – |
| Wnt3a | – | increased active β-catenin protein levels | upregulation of Wnt/β-catenin target genes | increased protein levels of active β-catenin |
